The record followed here is patent US6071884A, “Pharmaceutical compositions and therapeutic methods” (Kirin Beer Kabushiki Kaisha, priority 1992, dated 2000).

Assay [1] concerns marrow cells (mononuclear cell fraction). The experiment in a line: Proliferation-stimulating effect on marrow cell of mouse (3H-TdR uptake). The class given is cell-based, mouse (BALB/c). As to conditions: percentage of control, 72 h; for activity at 0.1 µg/mL: 10^-1 μg/ml; for activity at 0.01 µg/mL: 10^-2 μg/ml; for activity at 0.001 µg/mL: 10^-3 μg/ml. In short, it runs like this: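 Mononuclear marrow cell fraction from 7-week-old female BALB/c mouse thigh bone, 1.5×10^6 cells/ml in 10% FCS RPMI 1640, cultured with test sample 72 h at 37° C. ³H-thymidine (0.5 μCi/well) then added for 8 h; nuclear ³H-TdR uptake counted by liquid scintillation.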

The test system of assay [2] is mononuclear cell fraction of human umbilical cord blood. The experiment in a line: Proliferation-stimulating effect on mononuclear cell fraction of human umbilical cord blood (3H-TdR uptake). The class given is cell-based. As to conditions: 96 h, percentage of control, 4 days; for activity at 0.1 µg/mL: 10^-1 μg/ml; for activity at 0.01 µg/mL: 10^-2 μg/ml; for activity at 0.001 µg/mL: 10^-3 μg/ml. The source says: Pharmacological Test 3: Proliferation-Stimulating Effect on Mononuclear Cell Fraction of Human Umbilical Cord Blood
It is extremely difficult to obtain human marrow cells. In addition, human umbilical cord blood contains stem cells (Nakahata, T. & Ogwa, M., J. Clin. Inveet. 70, 1324-1328 (1982)), so that it can be a good source of hematopoietic stem/progenitor cell supply (H. E. Broxneyer et al, Proc. Natl. Acad. Sci. USA, 86, 3828-3832 (1989)). For these reasons, the effect on human was examined by using, instead of human marrow cells, human umbilical cord blood.
To human umbilical cord blood was added an equal amount of RPMI 1640. This was placed on a Lymphoprep and centrifugal. The mononuclear cell fraction (MNF) thus obtained was used in the following experiment.
The concentration of the MNF was adjusted to 1×10^6 cells/ml by using an RPMI 1640 added with 10% auto-blood plasma as a culture medium. 10 μl/well of a sample with a predetermined concentration and 100 μl/well of the above-prepared MNF were placed on a round-bottomed 96 well plate and incubated under the conditions of 37° C. and 5% CO2 for 4 days. Thereafter, 0.5 μCi/well of ^3 H-TdR was added. After 8 hour incubation, the cells were harvested, and the amount of the 3H-TdR taken in the nuclei was measured by a liquid scintillation counter.

Assay [3] can be described thus: Life-span-increasing effect on irradiation of a lethal dose of radiation. The class given is in vivo, mouse (BDF1). As to conditions: 10 mice/group, 9 Gy X-ray, 0.1 mg/kg i.v. days 0, 4, 8. Here is the method:
Pharmacological Test 4: Life-Span-Increasing Effect on Irradiation of a Lethal Dose of Radiation
An experiment was carried out by using 6 week old female BDF1 mice purchased from Japan SLC Co., Ltd., with 10 mice made one group.
The entire bodies of the entire body of the mice were irradiated with 9 Gy of X-rays by using a Hitachi X-ray irradiator (MBR-1520R), and the day on which the X-ray was irradiated was referred to as "day 0".

The subject of assay [4] is blood platelets. The experiment in a line: Thrombocytopenia-inhibiting effect in X-ray-irradiated mice. The class given is in vivo, mouse (BDF1). The following applies: 10 days after 5 Gy X-ray; 0.1 mg/kg i.v. within 2 h; mean ± SD; vehicle per series 10.3, 6.8, 6.7; non-treatment 68.2, 96.9, 73.0. In short, it runs like this: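 Female BDF1 mice, 6 weeks old, six per group, given 5 Gy whole-body X-ray, then 0.1 mg/kg i.v. via tail vein within 2 hours. Platelets counted by hemocytometer in fundus-vein blood 10 days later; untreated and vehicle groups run alongside.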

Assay [5] relates to blood platelets. The assay can be described thus: Blood-platelet-increasing effect upon normal mouse. The following applies: normal mice; 6 days after 0.1 mg/kg i.v.; mean ± SD; vehicle per series 58.2, 63.0, 71.1. It is filed as in vivo, mouse (BDF1). In short, it runs like this:
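Female BDF1 mice, 6 weeks old (5 per group), received test sample at 0.1 mg/kg into the caudal vein. Six days later, fundus-vein blood was taken and platelets counted on a multi-channel hemocytometer, compared against vehicle-treated animals.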

Where [6] appears, read: day 10, controls per series 10, 10, 10, 10, 10, 8.
The mark [7] stands for this setting: day 15, controls per series 8, 9, 5, 5, 7, 1.
Setting [8] is: day 20, controls per series 4, 5, 1, 2, 3, 0.
Setting [9] is: day 25, controls per series 3, 3, 0, 0, 2, 0.
Setting [10] is: day 30, controls per series 1, 1, 0, 0, 0, 0.

Consider `CCCCCCCCCCCCCCCCCCCCCCCC(=O)N[C@@H](CO[C@H]1O[C@H](CO)[C@H](O)[C@H](O)[C@H]1O)[C@H](O)[C@H](O)CCCCCCCCCCCCC` [Compound 17, (2S,3S,4R)-1-(α-D-galactopyranosyloxy)-2-tetracosanoylamino-3,4-heptadecanediol], for which the values for the activity at 0.1 µg/mL in assay [1] and in assay [2] were 462% and 318%, respectively. For the same compound, the activity at 0.01 µg/mL stood at 149% in assay [1] and 233% in assay [2]. For the same compound, the activity at 0.001 µg/mL amounted to 159% in assay [1] and 98% in assay [2]. Also, the “Number of Surviving Mice” value in assay [3] (setting [6]) was determined as 10 mice; in assay [3] (setting [7]) it was 10 mice; in assay [3] (setting [8]), 9 mice; in assay [3] (setting [9]), 9 mice; in assay [3] (setting [10]), 9 mice; in assay [3] (day 35, all controls 0), 9 mice. Further, in assay [3] (day 40, all controls 0), the “Number of Surviving Mice” value amounted to 9 mice. Also, the entries for the “Number of Blood Platelets” value with blood platelets [4] and with blood platelets [5] were 18.5 ± 4.4 × 10^4 /μl and 92.1 ± 11.3 × 10^4 /μl, respectively.

For the compound `CCCCCCCCCCCCCCCCCCCCCCCC[C@@H](O)C(=O)N[C@@H](CO[C@H]1O[C@H](CO)[C@H](O)[C@H](O)[C@H]1O)[C@H](O)[C@H](O)CCCCCCCCCCCCCCCC` [Compound 27, (2S,3S,4R)-1-(α-D-galactopyranosyloxy)-2-[(R)-2-hydroxyhexacosanoylamino]-3,4-icosanediol], the activity at 0.1 µg/mL in assay [1] was 220%; in assay [2], 450%. Moreover, the activity at 0.01 µg/mL was determined as 165% in assay [1] and 486% in assay [2]. Moreover, the activity at 0.001 µg/mL in assay [1] stood at 156%; in assay [2] it was 344%. In addition, the “Number of Surviving Mice” value in assay [3] (setting [6]) is 10 mice; in assay [3] (setting [7]) it was 10 mice; in assay [3] (setting [8]), 9 mice; in assay [3] (setting [9]), 9 mice; in assay [3] (setting [10]), 9 mice; in assay [3] (day 35, all controls 0) it was 9 mice. For the same compound, the “Number of Surviving Mice” value in assay [3] (day 40, all controls 0) worked out at 9 mice. Besides, the “Number of Blood Platelets” value in the assay on blood platelets [4] is 16.0 ± 4.1 × 10^4 /μl; in the assay on blood platelets [5] it was 101.3 ± 7.1 × 10^4 /μl.

With `CCCCCCCCCCCCCCCCCCCCCCCCCC(=O)N[C@@H](CO[C@H]1O[C@H](CO)[C@H](O)[C@H](O)[C@H]1O)[C@H](O)[C@H](O)CCCCCCCCCCCCC` [Compound 20, (2S,3S,4R)-1-(α-D-galactopyranosyloxy)-2-hexacosanoylamino-3,4-heptadecanediol], the activity at 1 µg/mL in assay [1] (10^0 μg/ml) is 982%. The activity at 0.1 µg/mL in assay [1] stood at 466%; in assay [2], 692%. Moreover, the activity at 0.01 µg/mL came out at 201% in assay [1] and 474% in assay [2]. The activity at 0.001 µg/mL in assay [1] is 67%; in assay [2], 507%. The “Number of Surviving Mice” value in assay [3] (setting [6]) came out at 10 mice; in assay [3] (setting [7]) it was 8 mice; in assay [3] (setting [8]), 7 mice; in assay [3] (setting [9]), 7 mice; in assay [3] (setting [10]), 6 mice; in assay [3] (day 35, all controls 0), 6 mice. In addition, in assay [3] (day 40, all controls 0), the “Number of Surviving Mice” value was 6 mice. For the same compound, the results for the “Number of Blood Platelets” value with blood platelets [4] and in the assay on blood platelets [5] were 19.8 ± 7.3 × 10^4 /μl and 110.9 ± 10.6 × 10^4 /μl, respectively.
